# Test results from patent publication US20100204263A1, “METHOD OF TREATING MULTIDRUG RESISTANT CANCERS” (priority 2007, published 2010).
# Where two headings read alike, the source gives them in different places.
# Experiments:
# Pgp [1] = biological target: T1, Pgp (Homo sapiens, UniProt P08183); settings: digoxin + test compound
# Source text: (§1) MDR1-MDCK are Madin Darby Canine Kidney cells transfected with the human multi-drug resistance gene. Confluent monolayers made from these cells can be used to access a test compound's potential role as a P-gp substrate. The assay set up is similar to the CaCo-2 assay.
# (§2) Both the Caco-2 and MDR1-MDCK cells were used for this model.
# Pgp, MRP-1 or BCRP [2] = assay: Resistance Ratios in three pairs of parental and resistant cell lines; format: cell-based, human; settings: IC50 resistant / IC50 parental; HL60-HL60VCR, HL60-HL60ADR, 8226-8226/MR20
# Method: The Resistance Ratios were calculated as IC50 of the resistant cell line/IC50 of the parental cell line.
# [3] = test system: K562 (human leukemia) cell lines and a K562 cell line selected for resistance to daunorubicin; assay: MTS cell proliferation assay, K562 and K562 resistant cell lines; format: cell-based
# Source text: MTS assay is an assay in which the bioreduction of the MTS reagent (3-(4,5-dimethylthiazol-2-yl)-5-(3-carboxymethoxyphenyl)-2-(4-sulfophenyl)-2H-tetrazolium)) by cells is being measured to assess metabolic activity of cells is based on the ability of a mitochondrial dehydrogenase enzyme from viable cells to cleave the tetrazolium rings of the MTS and form formazan crystals which are largely impermeable to cell membranes, thus resulting in its accumulation within healthy cells. Solubilization of the cells by the addition of a detergent results in the liberation of the crystals which are solubilized. The number of surviving cells is directly proportional to the level of the formazan product created. The color can then be quantified using a simple colorimetric assay. The results can be read on a multiwell scanning spectrophotometer (ELISA reader).
# [4] = test system: MCF7 (human breast cancer) cell lines and a MCF7 cell line selected for resistance to doxorubicin; settings: clonogenic
# Method: The MCF7 resistant cell line has been characterized with over-expression of the multidrug resistant protein (MDR; p-glycoprotein).
# In the clonogenic assay cells are treated in vitro and then suspended in a soft agar/cell media mixture. The cells are allowed to grow in definable and distinct clumps of cells, referred to as clones, based upon the survival of the cells originally treated. After a defined time span the number of clones is then counted by microscope.
# [5] = test system: P388 (murine leukemia) cell lines and a P388 cell line selected for resistance to doxorubicin; settings: MTT
# Source text: The P388 resistant cell line has been characterized with over-expression of the multidrug resistant protein (MDR; p-glycoprotein).
# MTT [3-(4,5-dimethylthiazol-2-yl)-2,5-diphenyltetrazolium bromide] assay, first described by Mosmann in 1983, is based on the ability of a mitochondrial dehydrogenase enzyme from viable cells to cleave the tetrazolium rings of the pale yellow MTT and form a dark blue formazan crystals which is largely impermeable to cell membranes, thus resulting in its accumulation within healthy cells. Solubilization of the cells by the addition of a detergent results in the liberation of the crystals which are solubilized. The number of surviving cells is directly proportional to the level of the formazan product created. The color can then be quantified using a simple colorimetric assay. The results can be read on a multiwell scanning spectrophotometer (ELISA reader).
# [6] = test system: HL60/ADR, a cell line selected for resistance to adriamycin (MRP-1); assay: WST-1 cell proliferation assay, HL60/ADR
# Method: The HL60/ADR resistant cell line has been characterized with over-expression of the multidrug resistant protein (MRP-1).
# (§3) WST-1 is a water-soluble tetrazolium salt that can be used for cell proliferation or cell viability assays. The rate of WST-1 cleavage by mitochondrial dehydrogenases correlates with the number of viable cells in the culture. WST-1 is added directly to the cells ( 1/10th of the culture volume) and absorbance at 450 nm can be measured using an ELISA plate reader following a short incubation at 37° C.
# [7] = test system: HL60 cells (Pgp negative); assay: Drug accumulation assay, HL60; format: cell-based, human; settings: HL60, increasing concentrations of amonafide
# Method: (§4) Functional expression analyses of Pgp were performed on a BD FACSCalibur flow cytometer (Franklin Lakes, N.J.). […] Data analysis was performed using the Dako Cytomation Summit software, version 4.0 (Fort Collins, Colo.).
# [8] = test system: pretreatment secondary AML patient cells; assay: Amonafide and daunorubicin efflux in cryopreserved cells of patients treated with amonafide+cytarabine; format: cell-based, human; settings: cells from 15 patients treated with amonafide+cytarabine
# Method: Cryopreserved cells were tested for viability and samples with viabilities less than 40% were considered inevaluable and discarded.
# To measure drug uptake, the substrates were incubated with cells in medium containing each drug alone, or in combination with the modulator at the desired final concentrations. Cells were then washed and resuspended in PBS, and placed on ice. Drug-associated fluorescence was measured by flow cytometry using a FacScan flow cytometer (Becton Dickinson Immunocytometry Systems, San Jose, Calif.) equipped in standard fashion with an Argon laser for 488 nm excitation and a 585/42 band-pass filter (FL2) or a 670 long-pass (FL3) filter for emission collection. Data were analyzed with WinList software (Verity Software House, Topsham, Me.).
# [9] = test system: 8226/MR20 cells (BCRP positive); assay: Drug accumulation assay, 8226/MR20; format: cell-based, human; settings: 8226/MR20 ± FTC
# Method: Functional expression analyses of BCRP were performed on a BD FACSCalibur flow cytometer (Franklin Lakes, N.J.). […] Data analysis was performed using the Dako Cytomation Summit software, version 4.0 (Fort Collins, Colo.).
# P-gp [10] = assay: in vitro; settings: human
# Method: (§5) Caco-2 cell permeability studies were performed using Caco-2 cell monolayers grown on microporous membranes in multiwell insert systems. […] The samples were analyzed using LC/MS detection. […] This is the slope of the basolateral concentration versus time curve divided by the concentration of compound in the apical dosing chamber and the total area of the Caco-2 cell monolayer.
# [11] = test system: HL60/VCR (HL60/MDR), a cell line selected for resistance to vincristine; assay: WST-1 cell proliferation assay, HL60/VCR
# Method: (§6) The HL60NCR resistant cell line has been characterized with over-expression of the multidrug resistant protein (MDR; p-glycoprotein). The over-expression ratio (level of MDR in resistant cell line over level of MDR in the parental cell line) is 8 fold with a 10 fold increase in pgp function. Pgp surface expression was measured by flow cytometry with the MRK16 antibody and Pgp function with the generic substrate, Rh123.
# as §3
# Pgp, MRP-1 or BCRP [12] = assay: Resistance Modifying Factors in three pairs of parental and resistant cell lines; format: cell-based, human; settings: IC50 resistant without modulator / with modulator
# Method: The Resistance Modifying Factors were calculated as IC50 of the resistant cell line in the absence of modulator/IC50 of the resistant cell line in the presence of modulator.
# [13] = test system: 8226/MR20, a cell line selected for resistance to mitoxantrone (BCRP); assay: WST-1 cell proliferation assay, 8226/MR20
# Method: The 8226/MR20 resistant cell line has been characterized with over-expression of the multidrug resistant protein (BCRP).
# BCRP surface expression was measured by flow cytometry with the BXP21 antibody.
# as §3
# [14] = test system: IGROV1-T8, a cell line selected for resistance to topotecan (increased BCRP expression); assay: cells; settings: Homo sapiens
# Method: (§7) The T8 resistant cell line has been characterized with over-expression of the multidrug resistant protein BCRP (breast cancer resistance protein). Topotecan, which is a known substrate for BCRP, was used as a control.
# (§8) Sulforhodamine-B (SRB) assay is performed to assess cell survival. SRB is a water-soluble dye that binds to the basic amino acids of the cellular proteins. Thus, colorimetric measurement of the bound dye provides an estimate of the total protein mass that is related to the cell number. The color can then be quantified using a simple colorimetric assay. The results can be read on a multiwell scanning spectrophotometer (ELISA reader).
# [15] = test system: HL60 (human promyelocytic leukemia) cells; assay: WST-1 cell proliferation assay, HL60; format: cell-based; settings: HL-60, wild-type HL60, WST-1, read-out: IC50 HL60
# Method: as §6, §3
# P-gp [16] = assay: in vitro; settings: human, MDCK-MDR1, efflux/influx ratio, Drug alone
# Method: as §1
# (§9) The samples were analyzed using LC/MS detection.
# Caco-2 cell monolayers [17] = settings: human, Caco-2, 120 min, 5 μM
# Method: as §5
# [18] = test system: IGROV1 (human ovarian) cell line; assay: SRB cell proliferation assay, IGROV1; format: cell-based
# Method: as §7, §8
# Caco-2 cell monolayers [19] = assay: Caco-2 cell monolayer permeability
# Method: as §5
# [20] = test system: HL60/VCR cells (Pgp positive); assay: Drug accumulation assay, HL60/VCR; format: cell-based, human
# Method: as §4
# [21] = test system: HL60/ADR cells (MRP-1 positive); assay: Drug accumulation assay, HL60/ADR; format: cell-based, human
# Method: Following uptake, the cells were washed with PBS and resuspended in fresh medium. An aliquot of cells from each sample was placed on ice for quantitation of baseline drug uptake. The remaining cells were incubated further and then resuspended in chilled fresh medium, and placed on ice for immediate flow cytometric analysis.
# Functional expression analyses of MRP-1 were performed on a BD FACSCalibur flow cytometer (Franklin Lakes, N.J.). Cellular amonafide content was measured on the Cytopeia Influx flow cytometer (Seattle, Wash.). Data analysis was performed using the Dako Cytomation Summit software, version 4.0 (Fort Collins, Colo.).
# [22] = test system: K562-K562/DOX cells (Pgp negative and Pgp positive); assay: Drug accumulation assay, amonafide retention in K562 and K562/DOX; format: cell-based, human
# Method: Functional expression analyses of Pgp were performed on a BD FACSCalibur flow cytometer (Franklin Lakes, N.J.). […] Data analysis was performed using the Dako Cytomation Summit software, version 4.0 (Fort Collins, Colo.). […] Differential Pgp staining of anti-Pgp treated cells was compared to that of control cells counted with the same number of gated events. All test samples were compared to their respective controls using Kolmogorov-Smirnov (KS) non-parametric statistics and expressed as D-values ranging from 0 to 1. These analyses were performed using the NCSS 2007 software (Kaysville, Utah). This approach addresses the maximum difference between two empirical distribution functions.
# Pgp [23] = biological target: T1, Pgp
# Source text: as §2
# Method for MDR1-MDCK cells (P-gp): as §1, §9
# T1 sequence (P08183 whole entry): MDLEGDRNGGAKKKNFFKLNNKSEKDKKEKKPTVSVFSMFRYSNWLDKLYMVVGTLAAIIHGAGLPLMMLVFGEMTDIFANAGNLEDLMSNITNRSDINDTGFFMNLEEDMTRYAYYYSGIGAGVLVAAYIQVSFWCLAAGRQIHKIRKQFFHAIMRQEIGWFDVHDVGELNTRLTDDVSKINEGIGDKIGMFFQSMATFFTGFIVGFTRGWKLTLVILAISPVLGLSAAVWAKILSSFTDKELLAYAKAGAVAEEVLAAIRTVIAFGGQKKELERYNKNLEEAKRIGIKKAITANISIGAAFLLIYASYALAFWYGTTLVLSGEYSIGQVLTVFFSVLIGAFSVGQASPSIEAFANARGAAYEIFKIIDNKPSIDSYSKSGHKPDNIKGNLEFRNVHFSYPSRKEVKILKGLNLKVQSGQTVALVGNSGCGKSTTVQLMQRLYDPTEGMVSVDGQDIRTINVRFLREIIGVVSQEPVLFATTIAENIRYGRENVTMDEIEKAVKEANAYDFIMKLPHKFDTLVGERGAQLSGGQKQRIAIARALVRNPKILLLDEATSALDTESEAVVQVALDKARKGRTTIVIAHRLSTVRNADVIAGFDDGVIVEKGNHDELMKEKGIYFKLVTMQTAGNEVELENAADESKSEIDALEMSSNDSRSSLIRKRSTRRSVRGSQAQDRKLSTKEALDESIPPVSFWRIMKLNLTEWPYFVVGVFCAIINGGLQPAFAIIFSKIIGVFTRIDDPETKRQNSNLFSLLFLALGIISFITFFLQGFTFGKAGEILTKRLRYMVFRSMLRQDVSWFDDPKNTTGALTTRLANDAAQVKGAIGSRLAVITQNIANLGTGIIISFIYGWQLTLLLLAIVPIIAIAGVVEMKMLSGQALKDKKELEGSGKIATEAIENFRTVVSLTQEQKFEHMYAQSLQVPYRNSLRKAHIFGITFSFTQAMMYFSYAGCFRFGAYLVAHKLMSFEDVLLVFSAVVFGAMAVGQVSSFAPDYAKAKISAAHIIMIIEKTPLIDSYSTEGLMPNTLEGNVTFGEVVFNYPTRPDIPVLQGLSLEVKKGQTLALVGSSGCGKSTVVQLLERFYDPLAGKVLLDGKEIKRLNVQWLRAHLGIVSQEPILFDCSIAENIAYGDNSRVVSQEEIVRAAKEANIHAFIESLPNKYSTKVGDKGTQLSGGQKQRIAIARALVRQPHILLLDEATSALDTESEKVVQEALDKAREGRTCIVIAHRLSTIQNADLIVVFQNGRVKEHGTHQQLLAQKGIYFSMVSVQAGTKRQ
structure (smiles),measurement,setting,value
"CN(C)CCN1C(=O)c2cccc3cc(N)cc(c23)C1=O [Amonafide, amonafide]","efflux/influx ratio, MDR1-MDCK, +CSA",MDR1-MDCK cells (P-gp); +CSA,1.2 ± 0.8
same,"efflux/influx ratio, MDR1-MDCK, Drug alone",MDR1-MDCK cells (P-gp); Drug alone,2.2
same,effect of addition of CSA on efflux,MDR1-MDCK cells (P-gp); MDR1-MDCK,did not have any effect
same,Pgp substrate / inhibitor status (conclusion),MDR1-MDCK cells (P-gp); conclusion from Caco-2 and MDR1-MDCK studies,neither a substrate nor an inhibitor of Pgp
same,"% Inhib. of control, digoxin efflux, MDR1-MDCK",Pgp [1],10%
same,substrate status from Resistance Ratios,"Pgp, MRP-1 or BCRP [2]","not a substrate for Pgp, MRP-1 or BCRP"
same,potency in resistant vs non-resistant cell line,[3],equipotent in both cell lines
same,potency in resistant vs non-resistant cell line,[4],equipotent in both cell lines
same,potency in resistant vs non-resistant cell line,[5],equipotent in both cell lines
same,cytotoxicity in presence of MRP1 inhibitor MK571,[6]; HL60/ADR ± MK571,unaffected
same,potency in both cell lines,[6]; HL60 vs HL60/ADR,equipotent in both cell lines
same,amonafide accumulation,[7],increases with increasing amonafide dose
same,drug efflux in relation to clinical response (CR vs non-CR),[8],no significant difference
same,Amonafide uptake and efflux in presence of BCRP inhibitor FTC,[9],did not significantly change
same,"Papp B→A at 120 min, 5 μM",P-gp [10]; Caco-2,26.8 ×10⁻⁶ cm/s
same,"efflux ratio at 120 min, 5 μM","P-gp [10]; Caco-2, efflux/influx ratio, Caco-2, +CSA",1.1 ± 0.4
same,"efflux ratio at 120 min, 5 μM","P-gp [10]; Caco-2, efflux/influx ratio, Caco-2, Drug alone",0.9 ± 0.2
same,"efflux ratio at 120 min, 5 μM","P-gp [10]; Caco-2, ratio of Papp(B-A)/Papp(A-B)",1
same,Fold Change in IC50,[11]; HL60/MDR vs HL60,0.29
same,cytotoxicity in presence of Pgp inhibitor PSC833,[11]; HL60/VCR ± PSC833,unaffected
same,potency in both cell lines,[11]; HL60 vs HL60/VCR,equipotent in both cell lines
same,IC50,"[11]; Homo sapiens, HL60/VCR, read-out: IC50 HL60/MDR",2.04 µM
same,substrate status from Resistance Modifying Factors,"Pgp, MRP-1 or BCRP [12]","not a substrate for Pgp, MRP-1 or BCRP"
same,cytotoxicity in presence of BCRP inhibitor Fumitremorgin C,[13]; 8226/MR20 ± Fumitremorgin C,unaffected
same,potency in both cell lines,[13]; 8226 vs 8226/MR20,equipotent in both cell lines
same,IC50,"[14]; T8, experiment (1)",5.18 µM
same,IC50,"[14]; T8, experiment (2)",4.87 µM
same,IC50,"[14]; T8, experiment (3)",5.83 µM
same,IC50,"[14]; read-out: IC50 (average), T8, average",5.29 µM
same,IC50,[15],6.98 µM
same,"efflux ratio at 120 min, 5 μM",P-gp [16],2.2 ± 0.8
same,"efflux/influx ratio, Caco-2, Drug alone",Caco-2 cell monolayers [17],0.9
same,IC50,"[18]; IGROV-1, IGROV1, average, read-out: IC50 (average)",2.93 µM
same,IC50,"[18]; IGROV-1, IGROV1, experiment (1), read-out: IC50",2.54 µM
same,IC50,"[18]; IGROV-1, IGROV1, experiment (2), read-out: IC50",3.73 µM
same,IC50,"[18]; IGROV-1, IGROV1, experiment (3), read-out: IC50",2.53 µM
same,effect of addition of CSA on efflux,Caco-2 cell monolayers [19]; Caco-2,did not have any effect
same,efflux classification,Caco-2 cell monolayers [19]; high efflux if ratio ≧3.0 and Papp(B-A) ≧1.0×10^−6 cm/s,not having significant efflux
same,Amonafide uptake and efflux in presence of Pgp inhibitor PSC833,[20],did not significantly change
same,Amonafide uptake and efflux in presence of MRP-1 inhibitor MK571,[21],did not significantly change
same,"Amonafide uptake and efflux, comparison of the two cell lines",[22]; K562 vs K562/DOX,not significantly different between the two cell lines
same,amonafide content in presence of Pgp inhibitor PKC412,[22]; each cell line ± PKC412,did not significantly change
same,effect on digoxin efflux,Pgp [23]; Caco-2,no effect
same,"% Inhib. of control, digoxin efflux, Caco-2",Pgp [23]; digoxin + test compound,0%
